Test systems include UACC-257; OVCAR-5; SR; NCI-H522; EKVX; SF-295; SN12C; RXF 393; U-251; CAKI-1; SF-539; HCC 2998; 786-0; SK-OV-3; OVCAR-4; TK-10; SK-MEL-2; HCT-15; KM12; NCI/ADR-RES.
Common to all, as to experiment: growth of human tumour cells (NCI), 48 h

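1) Cells in 96-well plates. 2) Compound, 48 h, 5 concentrations. 3) Linear interpolation between surrounding doses. 4) Unreached endpoint = highest concentration. GI50 marks 50% less growth.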 The source made the active and inactive calls. Cut-off read from the data, not from the text of the source: active = GI50 up to about 1.1 µM and inactive = higher.

As to `CCOC(=O)C1(C)CCC(C(=O)OC)C1=O` (centres undefined), the GI50 in the assay with UACC-257 is > 100 µM (inactive); with OVCAR-5, > 100 µM (inactive); with SR it was 24.6 µM (inactive); with NCI-H522, 17.1 µM (inactive); in the assay on EKVX, > 100 µM (inactive); in the assay on SF-295 it was > 100 µM (inactive). The GI50 is 42.9 µM (inactive) in the assay with SN12C; > 100 µM (inactive) in the assay with RXF 393; 67.1 µM (inactive) with U-251; > 100 µM (inactive) in the assay on CAKI-1; > 100 µM (inactive) in the assay on SF-539; 75.3 µM (inactive) with HCC 2998. In addition, the GI50 with 786-0 was > 100 µM (inactive); in the assay on SK-OV-3, > 100 µM (inactive); in the assay with OVCAR-4 it was > 100 µM (inactive); in the assay with TK-10 it was > 100 µM (inactive); in the assay on SK-MEL-2 it was > 100 µM (inactive); in the assay with HCT-15, 20.2 µM. In addition, the GI50 with KM12 is > 100 µM (inactive).

With `C(=N\N=C1NCCCCN1)/c1ccc2ccccc2c1`, the GI50 in the assay with UACC-257 was 21.9 µM (inactive); with OVCAR-5, 25.2 µM (inactive); in the assay on NCI-H522 it was 26.7 µM (inactive); with EKVX it was 46.7 µM (inactive); with SF-295, 21.3 µM (inactive); in the assay with SN12C it was 39.9 µM (inactive). Also, the GI50 was 22.8 µM (inactive) in the assay on RXF 393; 21.3 µM (inactive) in the assay with U-251; 20.4 µM (inactive) with SF-539; 15.3 µM (inactive) in the assay on HCC 2998; 23.1 µM (inactive) in the assay with 786-0; 27.2 µM (inactive) in the assay with SK-OV-3. The GI50 is 43.1 µM (inactive) in the assay on OVCAR-4; 37.9 µM (inactive) in the assay with TK-10; 21.9 µM (inactive) in the assay on SK-MEL-2; 28.1 µM in the assay with HCT-15; 26.9 µM (inactive) in the assay on KM12; 98.2 µM (inactive) in the assay with NCI/ADR-RES.

As to `COc1cc2c(cc1C)NC(=O)/C2=C/c1cccnc1`, the GI50 in the assay with OVCAR-5 is 13.6 µM (inactive); in the assay with NCI-H522, 13 µM (inactive); with EKVX it was 18.3 µM (inactive); in the assay on SF-295 it was 12.5 µM (inactive); in the assay on RXF 393 it was 7.8 µM (inactive); in the assay with U-251 it was 9.55 µM (inactive). The GI50 is 10.1 µM (inactive) in the assay with CAKI-1; 26.9 µM (inactive) with SF-539; 2.34 µM (inactive) in the assay with HCC 2998; 16 µM (inactive) in the assay with 786-0; 7.03 µM (inactive) in the assay with SK-OV-3; 26.1 µM (inactive) in the assay with OVCAR-4. Moreover, the GI50 with TK-10 was 11.9 µM (inactive); in the assay with SK-MEL-2, 16 µM (inactive); in the assay on HCT-15 it was 11 µM; in the assay on KM12, 8.32 µM (inactive); with NCI/ADR-RES it was 12.1 µM (inactive).

In the case of `COc1cc(/C=C/C(=N\NC(=O)c2ccccc2)c2sc(Nc3ccc(Cl)c(Cl)c3)nc2C)ccc1O`, the GI50 with UACC-257 was 29.6 µM (inactive); in the assay with OVCAR-5, 25.6 µM (inactive); in the assay with SR, 22.3 µM (inactive); in the assay on NCI-H522, 17 µM (inactive); in the assay with EKVX, 29.6 µM (inactive); in the assay with SF-295 it was 33.1 µM (inactive). Further, the GI50 with SN12C was 33 µM (inactive); in the assay with RXF 393 it was 39.7 µM (inactive); with U-251, 31.9 µM (inactive); in the assay on CAKI-1 it was 36.4 µM (inactive); with SF-539, 40.8 µM (inactive); in the assay with HCC 2998, 28.8 µM (inactive). The GI50 in the assay on 786-0 was 41.2 µM (inactive); in the assay on SK-OV-3, 70.3 µM (inactive); in the assay on OVCAR-4, 33.4 µM (inactive); in the assay on TK-10 it was 37.5 µM (inactive); in the assay with SK-MEL-2, 26.2 µM (inactive); with HCT-15, 31.9 µM. Besides, the GI50 with KM12 is 30.5 µM (inactive).

As to `Brc1ccc(-c2nnc(-c3nn(-c4ccccc4)c4nc5ccccc5nc34)o2)cc1`, the GI50 with UACC-257 is 92 µM (inactive); in the assay on OVCAR-5 it was 68.9 µM (inactive); in the assay with SR, 27.8 µM (inactive); in the assay with NCI-H522, > 100 µM (inactive); in the assay with EKVX, > 100 µM (inactive); with SF-295 it was > 100 µM (inactive). Moreover, the GI50 in the assay on SN12C, in the assay with RXF 393, with U-251, with CAKI-1, with SF-539 and with HCC 2998 was > 100 µM (inactive) throughout. The GI50 in the assay on 786-0 is > 100 µM (inactive); with SK-OV-3 it was > 100 µM (inactive); with OVCAR-4, 79.3 µM (inactive); with TK-10, > 100 µM (inactive); in the assay with SK-MEL-2, 60 µM (inactive); in the assay with KM12 it was > 100 µM (inactive).

Take `C[C@]12CC=CC(=O)[C@@]1(C)CCC(=O)C2`: the GI50 in the assay with UACC-257, in the assay with OVCAR-5, in the assay on SR, in the assay on NCI-H522, with EKVX and with SF-295 was > 100 µM (inactive) throughout. The GI50 in the assay with SN12C, with RXF 393, with U-251, with CAKI-1, in the assay with SF-539 and with HCC 2998 was > 100 µM (inactive) throughout. Moreover, the GI50 with 786-0, in the assay on SK-OV-3, in the assay with OVCAR-4, in the assay on TK-10, in the assay with SK-MEL-2 and with KM12 was > 100 µM (inactive) in each case.

With `O=C(CCC(=O)Nc1ccc(Cl)c(Cl)c1)CC(=O)c1ccc(F)cc1`, the GI50 in the assay on UACC-257, in the assay with OVCAR-5, in the assay on SR, in the assay on EKVX, in the assay with SF-295 and in the assay with SN12C was > 100 µM (inactive) throughout. In addition, the GI50 with RXF 393, with U-251, in the assay on CAKI-1, in the assay on SF-539, with HCC 2998 and in the assay with 786-0 was > 100 µM (inactive) throughout. Further, the GI50 in the assay with SK-OV-3, in the assay with OVCAR-4 and in the assay on KM12 was > 100 µM (inactive) throughout.

Take `CCCCCCCCCC1CC(=O)Oc2cccc(O)c21` (centres undefined): the GI50 with UACC-257 was 41.3 µM (inactive); in the assay on OVCAR-5 it was 28.3 µM (inactive); with SR, 23.2 µM (inactive); in the assay on NCI-H522, 20.9 µM (inactive); in the assay with EKVX it was 40.7 µM (inactive); in the assay with SF-295, 11.6 µM (inactive). In addition, the GI50 is 6.85 µM (inactive) with SN12C; 23.8 µM (inactive) in the assay with RXF 393; 2.72 µM (inactive) with U-251; 32.7 µM (inactive) in the assay with CAKI-1; 4.18 µM (inactive) with SF-539; 1.23 µM (inactive) in the assay with HCC 2998. Also, the GI50 is 10.1 µM (inactive) in the assay with 786-0; 7.69 µM (inactive) in the assay with SK-OV-3; 33.7 µM (inactive) in the assay with OVCAR-4; 36.2 µM (inactive) with TK-10; 20.6 µM (inactive) in the assay on SK-MEL-2; 23.4 µM with HCT-15. Besides, the GI50 with KM12 was 12.5 µM (inactive).

Turning to `O=C1CCC(=O)N1Cc1ccccc1/N=[N+](\[O-])c1ccccc1CN1C(=O)CCC1=O`, the GI50 in the assay with OVCAR-5, with SR, in the assay on NCI-H522, in the assay with EKVX, in the assay on SF-295 and in the assay on SN12C was > 100 µM (inactive) throughout. For the same compound, the GI50 in the assay on RXF 393, in the assay on U-251, with SF-539, in the assay on HCC 2998, with 786-0 and in the assay on OVCAR-4 was > 100 µM (inactive) throughout. Moreover, the GI50 in the assay with TK-10 is > 100 µM (inactive); in the assay with SK-MEL-2 it was > 100 µM (inactive); in the assay on HCT-15, more than 100 µM; with KM12, > 100 µM (inactive).

`NCCOCCOCC(=O)O`: the GI50 with UACC-257, in the assay on OVCAR-5, in the assay on SR, in the assay with NCI-H522, with EKVX and in the assay on SF-295 was > 100 µM (inactive) in each case. The GI50 in the assay on SN12C, in the assay on RXF 393, with U-251, in the assay on CAKI-1, with SF-539 and with HCC 2998 was > 100 µM (inactive) in each case. Besides, the GI50 in the assay on 786-0 is > 100 µM (inactive); with SK-OV-3 it was > 100 µM (inactive); in the assay on OVCAR-4, > 100 µM (inactive); in the assay with TK-10, > 100 µM (inactive); in the assay with SK-MEL-2 it was > 100 µM (inactive); in the assay with HCT-15, more than 100 µM. The GI50 in the assay with KM12 is > 100 µM (inactive).

Regarding `CC(C)CC(N)C(=O)O` (centres undefined), the GI50 with UACC-257, in the assay with NCI-H522, with SF-295, in the assay on SN12C, with RXF 393 and with U-251 was > 100 µM (inactive) throughout. For the same compound, the GI50 in the assay on CAKI-1, with SF-539, in the assay on 786-0, in the assay on SK-OV-3, in the assay with OVCAR-4 and in the assay with TK-10 was > 100 µM (inactive) in each case. The GI50 was > 100 µM (inactive) in the assay on SK-MEL-2, more than 100 µM with HCT-15, > 100 µM (inactive) in the assay on KM12 and > 100 µM (inactive) in the assay with NCI/ADR-RES.

Values taken from ChEMBL document CHEMBL1201862, “PubChem BioAssay data set” (2004).
